# Experimental data from US20080200439A1, “Methods and compositions for modulating BK channel activity and vasodilation” (University of Tennessee Research Foundation, priority 2006, published 2008).
# System: pressurized resistance cerebral arteries
# Assay: Artery diameter measurement, pressurized rat middle cerebral arteries
# Conditions: for Integral (area under the curve) from the time of drug application until complete washout of effect: change in diameter as a function of time; for Effect remaining after ~6 min of washout (percentual increase from diameter before agent application): when vehicle effect had totally vanished
# Experimental: Artery Diameter Measurement. Middle cerebral arteries were isolated from adult male Sprague-Dawley rats (=250 g) or 8- to 12-week-old β1-knockout and C57BL/6 control mice. Rats and mice were decapitated using a guillotine and sharp scissors, respectively. These procedures were approved by the Institutional Animal Care and Use Committee from The University of Tennessee Health Science Center, an AMLAC-accredited institution. Pressurization of arteries was performed as described (Liu et al., 2004). Endothelium was removed by passing an air bubble into the vessel lumen for 90 sec. Diameter changes were monitored through an inverted microscope (Nikon Eclipse TS100, Nikon Corp., Tokyo, Japan), recorded on camera (Sanyo VCB-3512T, Sanyo Electric Corp., Japan), and transferred to a computer. Diameter data were acquired and analyzed using IonWizard 4.4 software (IonOptics Corp., Milton, Mass., United States of America).
# Pressurized arteries were extraluminally perfused with physiological saline solution (PSS) (Liu et al., 2004) at a constant rate of 3.75 ml/min using a peristaltic pump Dynamax RP-1 (Rainin Instrument, Inc., Oakland, Calif., United States of America). At this rate, complete washout of the iberiotoxin (Ibtx) effect required >45 min. To keep basal tone under steady behavior, we shortened this period by increasing flow rate ˜3 times during washout of Ibtx, which sometimes evoked a flow-induced dilation (FIG. 1A). Equal volumes (25 ml) of vehicle- vs. LC-containing solutions were applied at equal, constant rate (see above) to the pressurized arterial segment in the chamber via a gravity system. Drugs were dissolved to make stock solutions (see Chemicals) and diluted in PSS to final concentration.
# Chemicals. All chemicals were purchased from Sigma (St. Louis, Mo., United States of America), with the exception of 5β-cholanic acid 3α-ol (LC) (Steraloids, Inc., Newport, R.I., United States of America) and Ibtx (Alomone Labs Ltd., Jerusalem, Israel). On the day of the experiment, an LC stock solution (333 mM) in dimethyl sulfoxide (DMSO) was freshly prepared by sonication for 5 min. For arterial tone experiments, the LC stock was diluted 1/10 in DMSO and further diluted in PSS to render final LC concentration. Solution containing vehicle (0.1% DMSO; V/V) was used as control perfusion. For electrophysiological recordings, the LC stock solution was diluted 1/10 in 95% ethanol and further diluted with bath solution to render final LC concentration (3-1,000 μM). The DMSO/ethanol vehicle (≦0.1/≦0.86% final concentrations) in bath solution was used as control.
# Data Analysis. Artery diameter response to each compound is shown as a percentage of the diameter obtained before compound application. Arterial diameter and electrophysiological data were analyzed with IonWizard 4.4 (IonOptics Corp., Milton, Mass., United States of America) and pCLAMP 8.0 (Molecular Devices, Union City, Calif., United States of America). Further analysis, plotting, and fitting were conducted using Origin 7.0 (Originlab Corp., Northampton, Mass., United States of America) and InStat 3.0 (GraphPad Software Inc., San Diego, Calif., United States of America).
# After myogenic tone development at 60 mm Hg, intact arteries reached a diameter of 154.4±5.2 μm (n=17). Maximal contraction and dilation were checked by perfusing the vessel with 60 mM KCl at the beginning, and Ca^2+-free solution at the end of each experiment (FIGS. 1A & 1B). In all cases (n=17), application of 45 μM LC, that is, concentrations well below LC's critical micellar concentration (CMC) (≧1 mM under our recording conditions) (Roda et al., 1995) caused a significant increase in peak arterial diameter: +6% on top of a transient increase in diameter caused by vehicle-containing solution (FIGS. 1A-1C). […]
# [1] = 45 μM, listed as Lithocholic acid
molecule,measurement,setting,value
"C[C@H](CCC(=O)O)[C@H]1CC[C@H]2[C@@H]3CC[C@@H]4C[C@H](O)CC[C@]4(C)[C@H]3CC[C@]12C [LC, 5β-cholanic acid 3α-ol]",Change in diameter caused by LC in the presence of Ibtx,45 μM LC + 55 nM Ibtx,−3.4%
same,Change in peak diameter caused by LC in the presence of 4-AP (over pre-LC values),45 μM LC + 0.8 mM 4-AP,+6%
same,Integral (area under the curve) from the time of drug application until complete washout of effect,45 μM,"18,369±3,964"
same,Integral (area under the curve) from the time of drug application until complete washout of effect,[1],"18,369 ± 3,964"
same,Expected increase in cerebral blood flow (CBF),"45 μM, from diameter change by a factor of ~3 (Gourley and Heistad, 1984)",~30%
same,Increase in peak arterial diameter on top of the transient increase caused by vehicle,"45 μM, intact arteries",+6%
same,Rise time,"45 μM, intact arteries with myogenic tone at 60 mm Hg",231.9 ± 21.9 s
same,Effect remaining after ~6 min of washout (percentual increase from diameter before agent application),45 μM,109.9±1.7%
same,Effect remaining after ~6 min of washout (percentual increase from diameter before agent application),[1],109.9 ± 1.7 %
same,Emax at 45 µM,"Rattus norvegicus, 45 μM, intact arteries, read-out: Maximal effect (% from diameter before compound application)",117 ± 1.9%
"iberiotoxin (QFTDVDCSVSKECWSVCKDLFGVDRGKCMGKKCRCYQ; UniProt P24663 1-37, looked up) [Ibtx, reference compound]",Decrease in diameter of intact arteries,"55 nM, bath application",−11.8±3.4%
